Publication PMC10920834, “Synthesis, anticancer activity, and molecular docking of half-sandwich iron(II) cyclopentadienyl complexes with maleimide and phosphine or phosphite ligands” (Scientific Reports, 2024)

What was measured:
Assay type in all cases: cell-based, human
[1] = system: A549 cells; test: Cell viability resazurin assay, A549 cells; settings: for viability of A549 cells relative to control: ± SD
Experimental: (§1) The A549 (human non-small cell lung cancer) cell line was obtained from the American Type Culture Collection (ATCC) and cultured in Dulbecco's Modified Eagle Medium (DMEM) with 10% fetal bovine serum (FBS), 2 mM L-Glutamine, 25 mM HEPES and penicillin/streptomycin solution (100 U/ml and 100 µg/ml, respectively). The HL-60 (human promyelocytic leukemia) cell line was also obtained from the American Type Culture Collection (ATCC) and cultured in Iscove’s Modified Dulbecco's Medium (IMDM) with 15% fetal bovine serum (FBS), 2 mM L-Glutamine, 25 mM HEPES and penicillin/streptomycin solution (100 U/ml and 100 µg/ml, respectively). Both cell lines were cultured in flasks at 37 °C in 5% CO2 and sub-cultured every 2–3 days to maintain exponential growth.
(§2) Firstly, resazurin salt powder was dissolved in sterile 1 × PBS. Cells were then seeded on the 96-well plates in the count of 1 × 10^4 in the case of HL-60 cells and of 5 × 10^4 for PBM cells and of 5 × 10^3 for A549 cells per well. A549 cells were seeded 24 h prior to treatment with the complexes to allow cell adherence to 96-well plate. Iron(II) complexes were added to wells to obtain final concentrations of 0.5, 1, 2.5, 5, 10, 25, 50, 100 and 250 μM. Subsequently, plates were incubated at 37 °C in 5% CO2 for 2 h and 24 h. After that 10 μl of resazurin salt was added to each well and plates again were incubated in 37 °C in 5% CO2 for 2 h. Finally, fluorescence was measured with microplate reader Synergy HT (Bio-Tek Instruments, USA) using an excitation wavelength of 530/25 and an emission wavelength of 590/35 nm. The effects of iron(II) complexes were calculated as the percentage of control fluorescence. IC50 (half maximal inhibitory concentration) values were calculated using a website algorithm (https://www.aatbio.com/tools/ic50-calculator). All assays were performed in octuplicate.

[2] = system: PBM cells; test: Cell viability resazurin assay, PBM cells; settings: for viability of PBM cells relative to control: ± SD
Source text: Peripheral blood mononuclear (PBM) cells were isolated from a leukocyte-buffy coat collected from the blood of healthy, non-smoking donors at the Blood Bank in Lodz, Poland. The study protocol received approval from the Committee for Research on Human Subjects of the University of Lodz (17/KBBN-UŁ/III/2019). The initial step of isolation process involved mixing buffy coats with PBS in a 1:1 ratio. Subsequently, the mixture was centrifuged using a density gradient of Lymphosep (Cytogen, Zgierz, Poland) at 2200 RPM for 20 min, employing the lowest values for acceleration and deceleration. PBM cells were collected and washed three times by centrifugation with 1 × PBS. Following isolation, the cells were suspended in RPMI 1640 medium.
as §2

[3] = system: HL-60 cells; test: Cell viability resazurin assay, HL-60 cells; settings: for viability of HL-60 cells relative to control: ± SD
Experimental: as §1, §2

**Q.** Which results are given for `O=C1C=CC(=O)[N-]1.[C-]#[O+].[Fe+2].c1cc[cH-]c1.c1ccc(OP(Oc2ccccc2)Oc2ccccc2)cc1` [3b, CpFe(CO)(P(OPh)3)(η^1-N-maleimidato)]?
**A.** viability of A549 cells relative to control ([1]; 2 h incubation, 0.5 µM): 94.42 ± 12.46%; viability of A549 cells relative to control ([1]; 2 h incubation, 1 µM): 97.15 ± 8.30%; viability of A549 cells relative to control ([1]; 2 h incubation, 2.5 µM): 96.59 ± 9.16%; viability of A549 cells relative to control ([1]; 2 h incubation, 5 µM): 90.46 ± 7.14%; viability of A549 cells relative to control ([1]; 2 h incubation, 10 µM): 93.75 ± 11.55%; viability of A549 cells relative to control ([1]; 2 h incubation, 25 µM): 97.77 ± 7.39%; viability of A549 cells relative to control ([1]; 2 h incubation, 50 µM): 104.82 ± 7.84%; viability of A549 cells relative to control ([1]; 2 h incubation, 100 µM): 97.69 ± 11.65%; viability of A549 cells relative to control ([1]; 2 h incubation, 250 µM): 97.95 ± 13.58%; IC50 ([1]; 24 h incubation): 19.2 µM; viability of A549 cells relative to control ([1]; 24 h incubation, 0.5 µM): 91.38 ± 8.55%; viability of A549 cells relative to control ([1]; 24 h incubation, 1 µM): 92.49 ± 11.20%; viability of A549 cells relative to control ([1]; 24 h incubation, 2.5 µM): 78.64 ± 6.01%; viability of A549 cells relative to control ([1]; 24 h incubation, 5 µM): 80.46 ± 7.49%; viability of A549 cells relative to control ([1]; 24 h incubation, 10 µM): 80.04 ± 11.40%; viability of A549 cells relative to control ([1]; 24 h incubation, 25 µM): 25.66 ± 3.11%; viability of A549 cells relative to control ([1]; 24 h incubation, 50 µM): 22.34 ± 2.60%; viability of A549 cells relative to control ([1]; 24 h incubation, 100 µM): 42.71 ± 5.87%; viability of A549 cells relative to control ([1]; 24 h incubation, 250 µM): 28.61 ± 5.09%; viability of PBM cells relative to control ([2]; 2 h incubation, 0.5 µM): 98.5 ± 2.18%; viability of PBM cells relative to control ([2]; 2 h incubation, 1 µM): 99.88 ± 2.57%; viability of PBM cells relative to control ([2]; 2 h incubation, 2.5 µM): 97.35 ± 5.51%; viability of PBM cells relative to control ([2]; 2 h incubation, 5 µM): 100.32 ± 3.02%; viability of PBM cells relative to control ([2]; 2 h incubation, 10 µM): 99.06 ± 3.6%; viability of PBM cells relative to control ([2]; 2 h incubation, 25 µM): 98.42 ± 1.87%; viability of PBM cells relative to control ([2]; 2 h incubation, 50 µM): 100.03 ± 0.88%; viability of PBM cells relative to control ([2]; 2 h incubation, 100 µM): 98.48 ± 0.54%; viability of PBM cells relative to control ([2]; 2 h incubation, 250 µM): 99.51 ± 1.24%; IC50 ([2]; 24 h incubation): 5.8 µM; viability of PBM cells relative to control ([2]; 24 h incubation, 0.5 µM): 97.8 ± 2.01%; viability of PBM cells relative to control ([2]; 24 h incubation, 1 µM): 98.46 ± 7.18%; viability of PBM cells relative to control ([2]; 24 h incubation, 2.5 µM): 94.41 ± 2.27%; viability of PBM cells relative to control ([2]; 24 h incubation, 5 µM): 52.91 ± 0.63%; viability of PBM cells relative to control ([2]; 24 h incubation, 10 µM): 49.35 ± 1.94%; viability of PBM cells relative to control ([2]; 24 h incubation, 25 µM): 31 ± 1.1%; viability of PBM cells relative to control ([2]; 24 h incubation, 50 µM): 28.33 ± 2.17%; viability of PBM cells relative to control ([2]; 24 h incubation, 100 µM): 16.65 ± 0.55%; viability of PBM cells relative to control ([2]; 24 h incubation, 250 µM): 13.82 ± 0.52%; viability of HL-60 cells relative to control ([3]; 2 h incubation, 0.5 µM): 108.58 ± 5.93%; viability of HL-60 cells relative to control ([3]; 2 h incubation, 1 µM): 105.27 ± 5.97%; viability of HL-60 cells relative to control ([3]; 2 h incubation, 2.5 µM): 111.13 ± 4.29%; viability of HL-60 cells relative to control ([3]; 2 h incubation, 5 µM): 116.45 ± 4.31%; viability of HL-60 cells relative to control ([3]; 2 h incubation, 10 µM): 125.67 ± 4.5%; viability of HL-60 cells relative to control ([3]; 2 h incubation, 25 µM): 140.68 ± 7.01%; viability of HL-60 cells relative to control ([3]; 2 h incubation, 50 µM): 116.21 ± 2.09%; viability of HL-60 cells relative to control ([3]; 2 h incubation, 100 µM): 70.87 ± 2.53%; viability of HL-60 cells relative to control ([3]; 2 h incubation, 250 µM): 23.24 ± 0.25%; HL-60 cell viability, sharp increase up to ([3]; 2 h incubation, concentration not given): approximately 140%; IC50 ([3]; 24 h incubation): 9.09 µM; viability of HL-60 cells relative to control ([3]; 24 h incubation, 0.5 µM): 101.68 ± 1.04%; viability of HL-60 cells relative to control ([3]; 24 h incubation, 1 µM): 98.91 ± 4.85%; viability of HL-60 cells relative to control ([3]; 24 h incubation, 2.5 µM): 91.42 ± 3.16%; viability of HL-60 cells relative to control ([3]; 24 h incubation, 5 µM): 72.37 ± 3.19%; viability of HL-60 cells relative to control ([3]; 24 h incubation, 10 µM): 49.27 ± 1.71%; viability of HL-60 cells relative to control ([3]; 24 h incubation, 25 µM): 3.18 ± 0.36%; viability of HL-60 cells relative to control ([3]; 24 h incubation, 50 µM): 0.99 ± 0.02%; viability of HL-60 cells relative to control ([3]; 24 h incubation, 100 µM): 0.96 ± 0.1%; viability of HL-60 cells relative to control ([3]; 24 h incubation, 250 µM): 0.94 ± 0.06%
